Measurements published in PubChem BioAssay AID248 (DTP/NCI, 2004).
“And” between values parts separate entries of the source, which are not always exact repeats. Equal entries are not always repeated. Toxic doses and inconclusive results are not listed. No stated cut-off is given here; in the data, active means T/C of 150% or more; inactive means T/C below 125%.

System: L1210 leukemia ip in BDF1 mice, survival T/C
Assay: NCI In Vivo Anticancer Drug Screen. Data for tumor model L1210 Leukemia (intraperitoneal) in B6D2F1 (BDF1) mice
Settings: endpoint: mean survival time, higher = longer survival
Outline: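 In this screen, tumor-bearing mice given compound are compared to those given vehicle, and their survival values are reported as a treated-to-control quotient.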

[1] = dose: 100.0 mg/kg/injection, schedule: Q04DX002 (ip), vehicle: saline with Tween-80
[2] = dose: 200.0 mg/kg/injection, schedule: Q04DX002 (ip), vehicle: saline with Tween-80
[3] = dose: 400.0 mg/kg/injection, schedule: Q04DX002 (ip), vehicle: saline with Tween-80
[4] = dose: 100.0 mg/kg/injection, schedule: Q01DX001 (ip), vehicle: saline
[5] = dose: 200.0 mg/kg/injection, schedule: Q01DX001 (ip), vehicle: saline
[6] = dose: 400.0 mg/kg/injection, schedule: Q01DX001 (ip), vehicle: saline
[7] = dose: 100.0 mg/kg/injection, schedule: Q01DX001 (ip), vehicle: Klucel (hydroxypropylcellulose) (HPC)
[8] = dose: 100.0 mg/kg/injection, schedule: Q01DX009 (ip), vehicle: Klucel (hydroxypropylcellulose) (HPC)
[9] = dose: 100.0 mg/kg/injection, schedule: Q04DX002 (ip), vehicle: Klucel (hydroxypropylcellulose) (HPC)
[10] = dose: 100.0 mg/kg/injection, schedule: Q04DX003 (ip), vehicle: Klucel (hydroxypropylcellulose) (HPC)
[11] = dose: 200.0 mg/kg/injection, schedule: Q01DX001 (ip), vehicle: Klucel (hydroxypropylcellulose) (HPC)
[12] = dose: 200.0 mg/kg/injection, schedule: Q01DX009 (ip), vehicle: Klucel (hydroxypropylcellulose) (HPC)
[13] = dose: 200.0 mg/kg/injection, schedule: Q04DX002 (ip), vehicle: Klucel (hydroxypropylcellulose) (HPC)
[14] = dose: 200.0 mg/kg/injection, schedule: Q04DX003 (ip), vehicle: Klucel (hydroxypropylcellulose) (HPC)
[15] = dose: 400.0 mg/kg/injection, schedule: Q01DX001 (ip), vehicle: Klucel (hydroxypropylcellulose) (HPC)
[16] = dose: 400.0 mg/kg/injection, schedule: Q01DX009 (ip), vehicle: Klucel (hydroxypropylcellulose) (HPC)
[17] = dose: 400.0 mg/kg/injection, schedule: Q04DX002 (ip), vehicle: Klucel (hydroxypropylcellulose) (HPC)
[18] = dose: 400.0 mg/kg/injection, schedule: Q04DX003 (ip), vehicle: Klucel (hydroxypropylcellulose) (HPC)
[19] = dose: 100.0 mg/kg/injection, schedule: Q01DX009 (ip), vehicle: saline with Tween-80

Measured: T/C

O=C(O)c1ccccc1C1C=CCCC1 (centres undefined)
inactive: [1] 101 % of control | [2] 101 % of control | [3] 104 % of control

O=C(C=C(C(F)(F)F)C(F)(F)F)c1ccccc1
inactive: [4] 100 % of control | dose: 100.0 mg/kg/injection, schedule: Q01DX009 (ip), vehicle: saline 91 % of control | [5] 94 % of control | dose: 200.0 mg/kg/injection, schedule: Q01DX009 (ip), vehicle: saline 100 % of control | [6] 109 % of control

S=C(N/N=C/c1ccncc1)Nc1ccccc1
inactive: [7] 96 % of control | [8] 97 % of control and 100 % of control | [9] 102 % of control and 91 % of control | [10] 103 % of control | [11] 100 % of control | [12] 108 % of control | [13] 98 % of control and 102 % of control | [14] 106 % of control | [15] 98 % of control | [16] 94 % of control and 104 % of control | [17] 97 % of control and 98 % of control | [18] 94 % of control

Cc1cc(Cl)ccc1NC(=O)Nc1ccccc1
inactive: dose: 100.0 mg/kg/injection, schedule: Q01DX009 (ip), vehicle: gum acacia 87 % of control | dose: 100.0 mg/kg/injection, schedule: Q04DX003 (ip), vehicle: gum acacia 87 % of control | dose: 200.0 mg/kg/injection, schedule: Q01DX009 (ip), vehicle: gum acacia 89 % of control | dose: 200.0 mg/kg/injection, schedule: Q04DX003 (ip), vehicle: gum acacia 89 % of control | dose: 400.0 mg/kg/injection, schedule: Q01DX009 (ip), vehicle: gum acacia 87 % of control | dose: 400.0 mg/kg/injection, schedule: Q04DX003 (ip), vehicle: gum acacia 90 % of control

COc1ccc(COC(=O)Nc2cc(OC)ccc2OC)cc1
inactive: [9] 101 % of control | [13] 101 % of control | [17] 107 % of control

COc1ccccc1C(=S)N1CCOCC1
inactive: [10] 91 % of control | [14] 96 % of control | [18] 99 % of control

COc1ccc(OC)c(-n2cccc2/C=N/NC(N)=O)c1
inactive: [9] 97 % of control | [13] 108 % of control | [17] 93 % of control

CC(=O)[C@H]1CC[C@H]2[C@@H]3CC[C@@H]4C[C@@H](O)CC[C@]4(C)[C@H]3CC[C@]12C
inactive: [1] 97 % of control | [2] 100 % of control | [3] 90 % of control

C=C(Cl)CSCC
inactive: dose: 100.0 mg/kg/injection, schedule: Q04DX003 (ip), vehicle: saline with Tween-80 111 % of control

O=C(O)COc1cc(F)ccc1[N+](=O)[O-]
inactive: [9] 91 % of control | [13] 102 % of control | [17] 107 % of control

Cc1c(C2=NCC(C)S2)ccc(O)c1N (centres undefined)
inactive: dose: 62.5 mg/kg/injection, schedule: Q04DX002 (ip), vehicle: saline with Tween-80 93 % of control | dose: 125.0 mg/kg/injection, schedule: Q04DX002 (ip), vehicle: saline with Tween-80 90 % of control | dose: 250.0 mg/kg/injection, schedule: Q04DX002 (ip), vehicle: saline with Tween-80 93 % of control

CCN(CC)C(=O)c1ccc([N+](=O)[O-])cc1
inactive: dose: 50.0 mg/kg/injection, schedule: Q01DX009 (ip), vehicle: Klucel (hydroxypropylcellulose) (HPC) 97 % of control | [8] 97 % of control | [10] 92 % of control | [12] 95 % of control | [14] 100 % of control

CCOc1ccc(-n2c(O)c(N=Nc3ccc(Cl)cc3)c(=O)n(-c3ccc(OC)cc3)c2=S)cc1
inactive: [7] 96 % of control | [11] 98 % of control | [15] 96 % of control

CC(=O)N1CCC(CC2CCCCC2)CC1
inactive: dose: 12.5 mg/kg/injection, schedule: Q04DX003 (ip), vehicle: saline 97 % of control | dose: 25.0 mg/kg/injection, schedule: Q04DX003 (ip), vehicle: saline 100 % of control | dose: 50.0 mg/kg/injection, schedule: Q04DX003 (ip), vehicle: saline 100 % of control

CN(C)C1C(CO)C(CO)C1(C)C (centres undefined)
inactive: dose: 100.0 mg/kg/injection, schedule: Q01DX001 (ip), vehicle: saline with Tween-80 102 % of control | dose: 200.0 mg/kg/injection, schedule: Q01DX001 (ip), vehicle: saline with Tween-80 97 % of control

CCCCCCCCCCCCC/C=C\CC(CC(=O)O)C(=O)Nc1cccc2cnccc12 (centres undefined)
inactive: [10] 97 % of control | [14] 103 % of control | [18] 97 % of control

CCOc1ccc(Nc2c3ccccc3nc3ccccc23)cc1
inactive: dose: 12.5 mg/kg/injection, schedule: Q01DX009 (ip), vehicle: saline with Tween-80 102 % of control | dose: 20.0 mg/kg/injection, schedule: Q01DX009 (ip), vehicle: saline with Tween-80 108 % of control | dose: 25.0 mg/kg/injection, schedule: Q01DX009 (ip), vehicle: saline with Tween-80 123 % of control | dose: 30.0 mg/kg/injection, schedule: Q01DX009 (ip), vehicle: saline with Tween-80 110 % of control | dose: 44.0 mg/kg/injection, schedule: Q01DX009 (ip), vehicle: saline with Tween-80 105 % of control | dose: 50.0 mg/kg/injection, schedule: Q01DX009 (ip), vehicle: saline with Tween-80 123 % of control | dose: 66.0 mg/kg/injection, schedule: Q01DX009 (ip), vehicle: saline with Tween-80 111 % of control and 123 % of control | [19] 94 % of control

NC(N)=N/N=C/CO
inactive: dose: 7.5 mg/kg/injection, schedule: Q01DX Z (oral), vehicle: saline 106 % of control | dose: 15.0 mg/kg/injection, schedule: Q01DX Z (oral), vehicle: saline 100 % of control | dose: 30.0 mg/kg/injection, schedule: Q01DX Z (oral), vehicle: saline 107 % of control | dose: 60.0 mg/kg/injection, schedule: Q01DX Z (oral), vehicle: saline 101 % of control | dose: 120.0 mg/kg/injection, schedule: Q01DX Z (oral), vehicle: saline 102 % of control | dose: 240.0 mg/kg/injection, schedule: Q01DX Z (oral), vehicle: saline 110 % of control

N#CC1(Nc2ccc(S(N)(=O)=O)cc2)CCCC1
inactive: dose: 50.0 mg/kg/injection, schedule: Q01DX001 (ip), vehicle: carboxymethylcellulose (CMC) 95 % of control | dose: 100.0 mg/kg/injection, schedule: Q01DX001 (ip), vehicle: carboxymethylcellulose (CMC) 93 % of control | dose: 200.0 mg/kg/injection, schedule: Q01DX001 (ip), vehicle: carboxymethylcellulose (CMC) 98 % of control

Cc1[nH]c2ccc(C(C)(C)c3ccccc3)cc2c1C
inactive: [4] 98 % of control | [5] 91 % of control | [6] 88 % of control

O=C(c1ccccc1)C1(c2ccccc2)SSC1(C(=O)c1ccccc1)c1ccccc1 (centres undefined)
inactive: dose: 100.0 mg/kg/injection, schedule: Q04DX003 (ip), vehicle: saline 95 % of control | dose: 200.0 mg/kg/injection, schedule: Q04DX003 (ip), vehicle: saline 92 % of control | dose: 400.0 mg/kg/injection, schedule: Q04DX003 (ip), vehicle: saline 97 % of control

CC(=O)CC(=O)N1CCCC(C)C1 (centres undefined)
inactive: [8] 102 % of control | [10] 104 % of control | [12] 92 % of control | [14] 106 % of control | [16] 96 % of control | [18] 106 % of control

[O-][n+]1c2ccccc2c(Cl)c2ccc3ccccc3c21
inactive: [1] 93 % of control | [2] 90 % of control | [3] 90 % of control

COC(=O)C1CCCC(=O)C1C(=O)OC (centres undefined)
inactive: dose: 100.0 mg/kg/injection, schedule: Q04DX003 (ip), vehicle: other 106 % of control | dose: 200.0 mg/kg/injection, schedule: Q04DX003 (ip), vehicle: other 97 % of control | dose: 400.0 mg/kg/injection, schedule: Q04DX003 (ip), vehicle: other 104 % of control

COC(=O)Nc1cccc(OC(=O)NCC(C)C)c1
inactive: [19] 87 % of control | dose: 200.0 mg/kg/injection, schedule: Q01DX009 (ip), vehicle: saline with Tween-80 91 % of control | dose: 400.0 mg/kg/injection, schedule: Q01DX009 (ip), vehicle: saline with Tween-80 96 % of control
